Common to all, as to type: functional
Test [1] concerns Malme-3M. The experiment in a line: Cytotoxicity against human MALME-3M cells at 10^-6 M after 48 hrs by SRB assay. As to conditions: read-out: GI. (In SRB staining, fixed cells bind dye roughly in proportion to their protein.)
The subject of test [2] is TK-10. The experiment in a line: Cytotoxicity against human TK10 cells at 10^-8 M after 48 hrs by SRB assay. As to conditions: TK-10, 48 h, read-out: GI.
Test [3] relates to MOLT-4. In words: Cytotoxicity against human MOLT4 cells at 10^-8 M after 48 hrs by SRB assay. As to conditions: MOLT-4, 48 h, read-out: GI.
The subject of test [4] is SF-295. In words: Cytotoxicity against human SF295 cells at 10^-5 M after 48 hrs by SRB assay. The note with it: SF-295, 48 h, read-out: GI.
For test [5], the system named is OVCAR-3. In words: Cytotoxicity against human OVCAR3 cells at 10^-8 M after 48 hrs by SRB assay. As to conditions: OVCAR-3, 48 h, read-out: GI.
For test [6], the system named is HCT-15. The experiment in a line: Cytotoxicity against human HCT15 cells at 10^-8 M after 48 hrs by SRB assay. As to conditions: HCT-15, 48 h, read-out: GI.
Test [7] has as its system SF-539. The experiment in a line: Cytotoxicity against human SF539 cells at 10^-7 M after 48 hrs by SRB assay. The note with it: SF-539, 48 h, read-out: GI.
Test [8] has as its system UACC-62. The experiment in a line: Cytotoxicity against human UACC62 cells at 10^-7 M after 48 hrs by SRB assay. As to conditions: UACC-62, 48 h, read-out: GI.
The nature of test [9]: Cytotoxicity against human UO31 cells at 10^-5 M after 48 hrs by SRB assay. The note with it: UO-31, 48 h, read-out: GI.
For test [10], the system named is SF-539. The experiment in a line: Cytotoxicity against human SF539 cells at 10^-8 M after 48 hrs by SRB assay. The note with it: SF-539, 48 h, read-out: GI.
For test [11], the system named is MOLT-4. In words: Cytotoxicity against human MOLT4 cells at 10^-7 M after 48 hrs by SRB assay. The note with it: MOLT-4, 48 h, read-out: GI.
Test [12] relates to M14. The experiment in a line: Cytotoxicity against human M14 cells at 10^-8 M after 48 hrs by SRB assay. The note with it: M14, 48 h, read-out: GI.
In test [13] the test system is SR. The experiment in a line: Cytotoxicity against human SR cells at 10^-4 M after 48 hrs by SRB assay. As to conditions: read-out: GI.
The subject of test [14] is CCRF-CEM. The experiment in a line: Cytotoxicity against human CCRF-CEM cells at 10^-7 M after 48 hrs by SRB assay. The note with it: read-out: GI.
In test [15] the test system is MDA-MB-435. The experiment in a line: Cytotoxicity against human MDA-MB-435 cells at 10^-7 M after 48 hrs by SRB assay. The note with it: MDA-MB-435, 48 h, read-out: GI.
Test [16] concerns A549. The experiment in a line: Cytotoxicity against human A549 cells at 10^-8 M after 48 hrs by SRB assay. The note with it: A549, 48 h, read-out: GI.
A short description of test [17]: Cytotoxicity against human UO31 cells at 10^-7 M after 48 hrs by SRB assay. As to conditions: UO-31, 48 h, read-out: GI.
The subject of test [18] is NCI-H460. In words: Cytotoxicity against human NCI-H460 cells at 10^-7 M after 48 hrs by SRB assay. As to conditions: NCI-H460, 48 h, read-out: GI.
For test [19], the system named is MDA-MB-231. The experiment in a line: Cytotoxicity against human MDA-MB-231 cells at 10^-7 M after 48 hrs by SRB assay. As to conditions: MDA-MB-231, 48 h, read-out: GI.
Test [20] concerns LOX IMVI. In words: Cytotoxicity against human LOXIMVI cells at 10^-7 M after 48 hrs by SRB assay. The note with it: read-out: GI.
The subject of test [21] is SN12C. The experiment in a line: Cytotoxicity against human SN12C cells at 10^-8 M after 48 hrs by SRB assay. As to conditions: read-out: GI.
The test system of test [22] is PC-3. In words: Cytotoxicity against human PC3 cells at 10^-8 M after 48 hrs by SRB assay. As to conditions: PC-3, 48 h, read-out: GI.
A short description of test [23]: Cytotoxicity against human UO31 cells at 10^-8 M after 48 hrs by SRB assay. The note with it: UO-31, 48 h, read-out: GI.
Test [24] deals with NCI-H226. The experiment in a line: Cytotoxicity against human NCI-H226 cells at 10^-8 M after 48 hrs by SRB assay. The note with it: NCI-H226, 48 h, read-out: GI.
Test [25] relates to IGROV-1. The experiment in a line: Cytotoxicity against human IGROV1 cells at 10^-8 M after 48 hrs by SRB assay. The note with it: IGROV-1, 48 h, read-out: GI.
Test [26] has as its system SW-620. The experiment in a line: Cytotoxicity against human SW620 cells at 10^-7 M after 48 hrs by SRB assay. The note with it: SW-620, 48 h, read-out: GI.
The subject of test [27] is IGROV-1. In words: Cytotoxicity against human IGROV1 cells at 10^-7 M after 48 hrs by SRB assay. The note with it: IGROV-1, 48 h, read-out: GI.
In test [28] the test system is SK-MEL-2. The experiment in a line: Cytotoxicity against human SK-MEL-2 cells at 10^-8 M after 48 hrs by SRB assay. As to conditions: SK-MEL-2, 48 h, read-out: GI.
The subject of test [29] is HCT-116. In words: Cytotoxicity against human HCT116 cells at 10^-7 M after 48 hrs by SRB assay. The note with it: HCT-116, 48 h, read-out: GI.
A short description of test [30]: Cytotoxicity against human UACC257 cells at 10^-7 M after 48 hrs by SRB assay. The note with it: UACC-257, 48 h, read-out: GI.
The test system of test [31] is SF-295. In words: Cytotoxicity against human SF295 cells at 10^-7 M after 48 hrs by SRB assay. As to conditions: SF-295, 48 h, read-out: GI.
The test system of test [32] is RXF 393. The experiment in a line: Cytotoxicity against human RXF393 cells at 10^-7 M after 48 hrs by SRB assay. The note with it: RXF 393, 48 h, read-out: GI.
Test [33] relates to BT-549. The experiment in a line: Cytotoxicity against human BT549 cells at 10^-8 M after 48 hrs by SRB assay. The note with it: BT-549, 48 h, read-out: GI.
For test [34], the system named is T47D. In words: Cytotoxicity against human T47D cells at 10^-7 M after 48 hrs by SRB assay. As to conditions: read-out: GI.
The subject of test [35] is K562. In words: Cytotoxicity against human K562 cells at 10^-8 M after 48 hrs by SRB assay. As to conditions: K562, 48 h, read-out: GI.
For test [36], the system named is OVCAR-3. The experiment in a line: Cytotoxicity against human OVCAR3 cells at 10^-7 M after 48 hrs by SRB assay. As to conditions: OVCAR-3, 48 h, read-out: GI.
For test [37], the system named is A549. In words: Cytotoxicity against human A549 cells at 10^-7 M after 48 hrs by SRB assay. The note with it: A549, 48 h, read-out: GI.
For test [38], the system named is A549. The experiment in a line: Cytotoxicity against human A549 cells after 48 hrs by SRB assay. As to conditions: A549, 48 h.
The subject of test [39] is A498. The experiment in a line: Cytotoxicity against human A498 cells at 10^-8 M after 48 hrs by SRB assay. The note with it: A498, 48 h, read-out: GI.
The subject of test [40] is NCI-H226. The experiment in a line: Cytotoxicity against human NCI-H226 cells at 10^-7 M after 48 hrs by SRB assay. The note with it: NCI-H226, 48 h, read-out: GI.
Test [41] relates to COLO 205. In words: Cytotoxicity against human COLO205 cells at 10^-8 M after 48 hrs by SRB assay. The note with it: COLO 205, 48 h, read-out: GI.
Test [42] relates to SW-620. The experiment in a line: Cytotoxicity against human SW620 cells at 10^-8 M after 48 hrs by SRB assay. The note with it: SW-620, 48 h, read-out: GI.
Test [43] concerns HCC 2998. The experiment in a line: Cytotoxicity against human HCC2998 cells at 10^-6 M after 48 hrs by SRB assay. The note with it: HCC 2998, 48 h, read-out: GI.
The subject of test [44] is ACHN. The experiment in a line: Cytotoxicity against human ACHN cells at 10^-7 M after 48 hrs by SRB assay. The note with it: read-out: GI.
The subject of test [45] is U-251. The experiment in a line: Cytotoxicity against human U251 cells at 10^-7 M after 48 hrs by SRB assay. As to conditions: U-251, 48 h, read-out: GI.

The values that follow come from ChEMBL document CHEMBL3120154, “2-[N-Alkyl(R-phenyl)-aminomethyl]-3-phenyl-7-trifluoromethylquinoxalines as anticancer agents inhibitors of folate enzymes” (Eur J Med Chem, 2014).

Regarding `C#CCN(Cc1nc2cc(C(F)(F)F)ccc2nc1-c1ccccc1)c1ccc(C)cc1`, the inhibition of growth at 1 µM in [1] is < 40%.

A word on the GI50: it is the concentration giving 50% growth inhibition. As to `CCN(Cc1nc2cc(C(F)(F)F)ccc2nc1-c1ccccc1)c1ccc(OC)c(OC)c1`, the inhibition of growth at 0.01 µM in test [2], in test [3], in test [5], in test [6], in [10] and in [12] was < 40% throughout. In addition, the inhibition of growth at 0.01 µM in test [16] was 19%; in [21], < 40%; in test [22] it was < 40%; in test [23], < 40%; in [24] it was < 40%; in [25], < 40%. The inhibition of growth at 0.01 µM in test [28], in [33], in test [35], in [39], in test [41] and in test [42] was < 40% each time. Also, the inhibition of growth at 10 µM in test [4] was 18%; in test [9], < 40%. Besides, the inhibition of growth at 0.1 µM in test [7], in test [8], in test [11], in [14], in test [15] and in test [17] was < 40% throughout. In addition, the inhibition of growth at 0.1 µM in test [18], in test [19], in [20], in test [26], in [27] and in test [29] was < 40% in each case. The inhibition of growth at 0.1 µM is 67% in test [30]; < 40% in test [31]; 43% in test [32]; < 40% in [34]; < 40% in [36]; 42% in [37]. Moreover, the inhibition of growth at 0.1 µM in test [40], in [44] and in test [45] was < 40% throughout. Moreover, in test [13], the inhibition of growth at 100 µM was 145%. In test [38], this compound gave a 50% growth inhibitory concentration (GI50) of 0.372 µM. For the same compound, in test [43], the inhibition of growth at 1 µM is < 40%.
